Like-named read-outs stand apart in the source and are kept apart here.
Tests used:
[1] = test system: Brugia pahangi adult females; test: Transmission electron microscopy of B. pahangi adult females from treated gerbils; type: in vivo; settings: females from gerbils treated with 1 mg/kg
Procedure: B. pahangi adult females recovered from gerbils treated with 1 mg/kg THP and analog 06 were prepared as above except worms were cut into approximately 5 mm long pieces taken from the center of the worm. Pieces were washed for one hour in 0.1 M sodium cacodylate followed by post-fixation in 1% osmium tetroxide for 1 h and again washed in the same buffer for another hour. Sample pieces were dehydrated using an increasing concentration of ethanol and resin (Durcupan, by Fluka) and transitioned using propylene oxide. Samples were left overnight in pure resin at 4 °C. Samples pieces were embedded using Beem capsules (Electron Microscopy Sciences) and cured at 60 °C overnight. All reagents were purchased from Electron Microscopy Sciences.
Blocks were trimmed and sectioned using a diamond knife on a Sorvall MT-6000 ultramicrotome, collected on formvar coated 1 mm slot grids and contrasted using uranyl acetate and lead citrate. Grids were imaged on a Philips CM100 transmission electron microscope at 80 kV and images were collected using a Gatan Orius imaging system.

Loa loa mf = test: Loa loa microfilariae motility counter-screen; type: cell-based; settings: Loa loa, 120 h, Day 5
Procedure: To assess the effects of the compounds on O. ochengi mf, the mf were harvested from infected cow skin and cultured (10–15 mf per well) in 100 µL media in 96-well plates with a confluent feeder layer of monkey kidney epithelial cells (MK2) as previously described. […] All compounds were also counter-screened with L. loa mf collected from infected individuals with approval from the University of Buea (IRB approval # 964-19). Mf were separated from blood cells using a Percoll gradient as previously described and set up for assays (10–15 mf per well).

Brugia pahangi = test: Brugia pahangi/gerbil model of infection: worm and peritoneal mf counts at necropsy; type: in vivo; settings: gerbil, 1 mg/kg IP once a day for 5 days, necropsy 13 weeks post-first dose; mean (SEM)
Procedure: Male Mongolian gerbils 50–60 g, 5–7 weeks in age (Meriones unguiculatus, Charles River Laboratories International, Inc., Wilmington, MA, USA) were injected intraperitoneally (IP) with 200 third-larval stage B. pahangi and treated a minimum of 3 months later when larvae developed into adult worms.
Animals were given IP doses of 1 mg/kg once a day for 5 days based on in vivo studies by Jones et al., 2009 [14] and gerbil PK analyses. Compounds are light sensitive and were shielded from light during formulation. Animals were necropsied 13 weeks post-first dose, and peritoneal cavities were washed with 100 mL of PBS to collect adult worms and mf that had been released from female worms. Adult worms were separated by sex, counted, and processed for subsequent analyses. Mf from the peritoneal cavities were quantified by mixing peritoneal wash 9:1 (v/v) with 0.04% methylene blue:water and counted using an inverted microscope.
Worm burden, peritoneal mf counts, overnight mf sheds and qPCR data were analyzed using a Kruskal–Wallis test followed by Dunn’s multiple comparison. To determine significant differences in embryograms, a two-way ANOVA was conducted with a Dunnett’s multiple comparisons test, and significance levels were determined based on comparisons with vehicle treated animals. All statistical analyses were determined using Prism 8 version 8.2.0(272).

O. volvulus pre-adult L5 = test: O. volvulus pre-adult (Ov L5) motility assay; type: cell-based, Onchocerca volvulus; settings: Onchocerca volvulus, Day 36 @ 1 µM; 14 days drug then washout
Procedure: O. volvulus adult male and female worms, which can only be obtained from infected individuals, are not readily accessible for ex vivo studies. Moreover, since there is no small animal model that can maintain infections by O. volvulus, a recently developed in vitro system was used to evaluate the macrofilaricidal effects on pre-adult worms. All compounds except for 04 were tested in this O. volvulus pre-adult/L5 motility and viability assay.
Briefly, Ov L3 larvae were cultured to the pre-adult/L5 stage in vitro as described by Voronin et al., 2019 [45]. Once larvae reached the L5 stage (after at least 70 days in culture), 8–10 Ov L5 were moved to new transwell inserts in a 24-well plate containing 0.5 mL Ov L4-CMS media seeded with a 3 × 10^4/well Human Umbilical Vein Endothelial Cells (HUVEC) monolayer. Duplicate wells were treated with 1 and/or 10 µM of compound. Ov L5 were exposed to compounds for 14 days (exchanged 50% of media with fresh compound every two days) and then cultured with new media without compound, exchanging 50% of media every 2–3 days, up to day 36. Control Ov L5 were treated with 0.05% DMSO. Concentrations were chosen based on activity in the B. pahangi female motility assay. Motility was assessed visually and ranked on a 0–100% scale every 2–3 days over the course of the assay. At the end of the motility assay, Ov L5 viability was measured by 3-(4,5-dimethylthiazol-2-yl)-2,5-diphenyltetrazolium bromide (MTT) assay. Ov L5 were incubated with 0.1% MTT in PBS at 37 °C for 1 h then visually inspected for blue coloration indicating MTT reduction. Worms were considered dead if <50% of the worm was stained blue, and worms were considered alive if >50% of the worm was stained blue.

in vitro = settings: dog, MDCK-MDR1
Procedure: Permeability assays were conducted using 5 µM of each test compound with digoxin as a control. […] electrical resistance was used to verify the integrity of the MDCK-MDR1 monolayer. After compound addition, plates were incubated at 37 °C with 5% CO2 for 1 h. Samples were analyzed by LC–MS/MS and net flux ratio was calculated using basal-to-apical and apical-to-basal permeability.

[2] = test system: O. volvulus third-stage larvae (L3); test: O. volvulus L3 to L4 molting assay; type: cell-based, Onchocerca volvulus; settings: Day 6, read-out: O. volvulus L3 Inhibition of Molting Day 6 IC50
Procedure: O. volvulus, like other nematodes, undergo molts during their larval stages as they develop into the adult form. […] The molting assay tests the potency of compounds to prevent the L3 from molting to the L4 stage in vitro. […] Briefly, 5–10 Ov L3 collected from infected Simulium blackflies and frozen in liquid nitrogen were thawed and plated in 96-well plates seeded with 0.2 × 10^6 normal human peripheral blood mononuclear cells (PBMCs) in 100 µL complete medium containing 20% heat inactivated FBS and treated with compounds at 10, 3, 1, 0.3, 0.1 and 0.03 μM. L3 exposed to 0.5% DMSO or complete media only were run as negative controls. Larvae were incubated at 37 °C with 5% CO2, and molting was determined by examining the wells for highly motile L4 larvae and empty L3 casts after 6 days in culture.

[3] = test system: Brugia pahangi adult females; test: In vitro motility assay with adult female Brugia pahangi (Worminator)

## Cc1ccc2c(ccc(/C=C/c3c(C)nn(-c4ccccc4)c3C)[n+]2C)c1.[I-] [Analog 06, 2-[(E)-2-(3,5-dimethyl-1-phenyl-1H-pyrazol-4-yl)ethenyl]-1,6-dimethylquinolin-1-ium iodide]
[1]; 1 mg/kg
  Ultrastructure of gonads / developing microfilariae of female worms (TEM): more severe effect on the gonads
[1]; listed as 06, 1 mg/kg
  Ultrastructure of gonads / developing microfilariae of female worms (TEM): abnormal ultrastructural phenotypes
Loa loa mf
  inhibition at 10 µM: 88%
Brugia pahangi
  Adult worms per animal: 31.3 (11.8)
  Female worms per animal: 15.9 (5.7)
  Male worms per animal: 15.4 (6.1)
  Mf per animal (peritoneal cavity): 915,000 (263,235)
O. volvulus pre-adult L5
  inhibition at 1 µM: > 90%
In vitro
  Papp A→B: 0.5 ×10⁻⁶ cm/s
  Papp B→A: 12.1 ×10⁻⁶ cm/s
[2]
  IC50: 460 nM
[2]; Onchocerca volvulus, 144 h
  IC50: 458 nM
[3]; 1 µM, Day 3, 1 µM
  Brugia Adult Females Inhibition of Motility Day 3 @ 1 µM: 71%
[3]; Brugia pahangi, 72 h, read-out: Brugia Adult Females Inhibition of Motility Day 3 @ 1 µM, 1 µM, Day 3
  inhibition at 1 µM: > 70%
[3]; Brugia pahangi, 72 h, read-out: Brugia Adult Females Inhibition of Motility Day 3 IC50
  IC50: 733 nM
[3]; Day 3
  Brugia Adult Females Inhibition of Motility Day 3 IC50: sub-micromolar range
